≈ marks a conversion by molar mass, not a printed value.
How the values were obtained:
L1210 leukemia = L1210 leukemia cell proliferation inhibition (Table 1, procedure of Li et al.); assay type: cell-based, mouse; conditions: drug concentration required to inhibit cell proliferation to 50% of untreated control cells; for IC50: Mus musculus, L1210, read-out: L1210 (IC50 μg/ml)
Text: The biological activity of the compounds of this invention has been further confirmed using well known procedures against L1210 leukemia and the results set forth in Table I. The results were obtained using standard well known procedure (Li, L. H.; Kuentzel, S. L.; Murch, L. L.; Pschigoga, L. M.; and W. C. Krueger, “Comparative biological and biochemical effects of nogalamycin and its analogs on L1210 leukemia,” Cancer Res. 39:4816-4822 (1979)). The results are expressed as an IC50 which is the drug concentration required to inhibit cell proliferation to 50% of that of untreated control cells. Lower numbers indicated greater activity.

[1] = tested on: A2780 (human ovarian carcinoma) cells; assay: Cytotoxicity in A2780 (human ovarian carcinoma) cells in culture (IC90); assay type: cell-based
Text: (§1) The biological activity of the 7-deoxy-7-halotaxol compounds (Formula III) of the invention has been confirmed using well known procedures.

tubulin = assay: In vitro tubulin polymerization assay after Gaskin et al.; assay type: biochemical; conditions: in vitro at 20° C.; for induction of tubulin polymerization in vitro: compared with taxol
Text: (§2) The biological activity of the 7-deoxy-7β,8β-methanotaxol compounds (Formula II) of the invention has been confirmed using well known procedures.
as §1

[2] = tested on: L1210 mouse leukemia carcinoma cells; assay: Cytotoxicity in L1210 mouse leukemia carcinoma cells in culture (IC90); assay type: cell-based
Text: as §2

For `CC(=O)OC1C(=O)C2(C)C(F)CC3OCC3(OC(C)=O)C2C(OC(=O)c2ccccc2)C2(O)CC(OC(=O)C(OC(=O)OCC(Cl)(Cl)Cl)C(NC(=O)c3ccccc3)c3ccccc3)C(C)=C1C2(C)C` (stereo not shown) [Compound 13AA, 2′-{[(2,2,2-Trichloroethyl)-oxy]carbonyl}-7-deoxy-7-fluorotaxol], the “L1210 (IC50 μg/ml)” value (L1210 leukemia) was 0.054 µg/mL.

`CC(=O)O[C@H]1C(=O)[C@]2(C)C(F)C[C@H]3OC[C@@]3(OC(C)=O)[C@H]2[C@H](OC(=O)c2ccccc2)[C@]2(O)C[C@H](OC(=O)[C@H](OC(=O)OCC(Cl)(Cl)Cl)[C@@H](NC(=O)OC(C)(C)C)c3ccccc3)C(C)=C1C2(C)C` (stereo partly shown) [Compound 13DA, N-Debenzoyl-N-(t-butyl)oxycarbonyl-2′-{[(2,2,2-trichloroethyl)oxy]carbonyl}-7-deoxy-7-fluorotaxol] was tested, and the “L1210 (IC50 μg/ml)” value (L1210 leukemia) was 0.015 µg/mL.

For `CC(=O)OC1C(=O)C23CC2CC2OCC2(OC(C)=O)C3C(OC(=O)c2ccccc2)C2(O)CC(OC(=O)C(OC(=O)OCC(Cl)(Cl)Cl)C(NC(=O)c3ccccc3)c3ccccc3)C(C)=C1C2(C)C` (stereo not drawn) [Compound 14AA, 2′-{[(2,2,2-Trichloroethyl)oxy]carbonyl}-7-deoxy-7β,8β-methanotaxol], the “L1210 (IC50 μg/ml)” value (L1210 leukemia) was over 0.1 µg/mL.

Work on `CC(=O)O[C@H]1C(=O)C23C[C@@H]2CC2OC[C@@]2(OC(C)=O)C3[C@H](OC(=O)c2ccccc2)[C@]2(O)CC(OC(=O)C(OC(=O)OCC(Cl)(Cl)Cl)[C@@H](NC(=O)OC(C)(C)C)c3ccccc3)C(C)=C1C2(C)C` (stereo partly drawn) [Compound 14DA, N-Debenzoyl-N-(t-butyl)oxycarbonyl-2′-{[(2,2,2-trichloroethyl)oxy]carbonyl}-7-deoxy-7β,8β-methanotaxol] yielded an IC50 (L1210 leukemia) of 0.012 µg/mL (≈ 0.0119 µM).

For `CC(=O)OC1C(=O)C2(C)C(F)CC3OCC3(OC(C)=O)C2C(OC(=O)c2ccccc2)C2(O)CC(OC(=O)C(O)C(NC(=O)OC(C)(C)C)c3ccccc3)C(C)=C1C2(C)C` (stereo not shown) [Compound 20, N-Debenzoyl-N-(t-butyl)oxycarbonyl-7-deoxy-7-fluorotaxol], the “L1210 (IC50 μg/ml)” value (L1210 leukemia) was 0.0038 µg/mL.

`CC(=O)O[C@H]1C(=O)[C@]23C[C@H]2C[C@H]2OC[C@@]2(OC(C)=O)[C@H]3[C@H](OC(=O)c2ccccc2)[C@]2(O)C[C@H](OC(=O)[C@H](O)[C@@H](NC(=O)OC(C)(C)C)c3ccccc3)C(C)=C1C2(C)C` [Compound 23, N-Debenzoyl-N-(t-butyl)oxycarbonyl-7-deoxy-7β,8β-methanotaxol] was tested, and the “L1210 (IC50 μg/ml)” value (L1210 leukemia) was 0.0046 µg/mL.

`CC(=O)O[C@H]1C(=O)[C@@]2(C)C(F)C[C@H]3OC[C@@]3(OC(C)=O)[C@H]2[C@H](OC(=O)c2ccccc2)[C@]2(O)C[C@H](OC(=O)[C@H](O)[C@@H](NC(=O)NC(C)(C)C)c3ccccc3)C(C)=C1C2(C)C` (stereo partly shown) [Compound 28, N-debenzoyl-N-(t-butyl)aminocarbonyl-7-deoxy-7-fluoro-taxol] was tested, and the “L1210 (IC50 μg/ml)” value (L1210 leukemia) was 0.0055 µg/mL.

For `CC(=O)O[C@H]1C(=O)[C@@]23CC2C[C@H]2OC[C@@]2(OC(C)=O)[C@H]3[C@H](OC(=O)c2ccccc2)[C@]2(O)C[C@H](OC(=O)[C@H](O)[C@@H](NC(=O)NC(C)(C)C)c3ccccc3)C(C)=C1C2(C)C` (stereo partly drawn) [Compound 29, N-debenzoyl-N-(t-butyl)aminocarbonyl-7-deoxy-7β,8β-methano-taxol], the “L1210 (IC50 μg/ml)” value (L1210 leukemia) was 0.006 µg/mL.

In the case of `CC(=O)O[C@H]1C(=O)[C@]2(C)C(F)C[C@H]3OC[C@@]3(OC(C)=O)[C@H]2[C@H](OC(=O)c2ccccc2)[C@]2(O)CC(OC(=O)[C@H](O)[C@@H](NC(=O)c3ccccc3)c3ccccc3)C(C)=C1C2(C)C` (stereo partly shown) [Compound IIIb, 7-Deoxy-7-fluorotaxol], the IC90 ([1]; Homo sapiens, A2780, read-out: IC90 (90% growth inhibitory concentration)) is reported as 0.016 µg/mL (≈ 0.0187 µM), the IC50 (L1210 leukemia) is reported as 0.01 µg/mL (≈ 0.0117 µM) and the “potency relative to taxol in tubulin polymerization assay” value (tubulin) is reported as “approximately half as potent as taxol”. The “induction of tubulin polymerization in vitro” value (tubulin) was “able to induce tubulin polymerization in vitro at 20 °C in a manner very similar to taxol”.

For `CC(=O)OC1C(=O)C23CC2CC2OCC2(OC(C)=O)C3C(OC(=O)c2ccccc2)C2(O)CC(OC(=O)C(O)C(NC(=O)c3ccccc3)c3ccccc3)C(C)=C1C2(C)C` (stereo not drawn) [Compound IIb, 7-Deoxy-7β,8β-methanotaxol], the “L1210 (IC50 μg/ml)” value (L1210 leukemia) was 0.012 µg/mL, the “induction of tubulin polymerization in vitro” value (tubulin) was “able to induce tubulin polymerization in vitro at 20 °C in a manner very similar to taxol” and the “IC90 (90% growth inhibitory concentration)” value [2] was 0.025 micrograms/ml.

With `CC(=O)O[C@H]1C(=O)[C@@]2(C)[C@H]([C@H](OC(=O)c3ccccc3)[C@]3(O)C[C@H](OC(=O)[C@H](O)[C@@H](NC(=O)c4ccccc4)c4ccccc4)C(C)=C1C3(C)C)[C@]1(OC(C)=O)CO[C@@H]1C[C@@H]2O` [Taxol] the “IC90 (90% growth inhibitory concentration)” value ([1]; A2780 (human ovarian carcinoma) cells in culture) was 0.007 micrograms/ml, the “L1210 (IC50 μg/ml)” value (L1210 leukemia) was 0.015 µg/mL and the “IC90 (90% growth inhibitory concentration)” value [2] was 0.06 micrograms/ml.

For `CC(=O)O[C@@]12CO[C@@H]1C[C@H](O)[C@@]1(C)C(=O)[C@H](O)C3=C(C)[C@@H](OC(=O)[C@H](O)[C@@H](NC(=O)OC(C)(C)C)c4ccccc4)C[C@@](O)([C@@H](OC(=O)c4ccccc4)[C@H]21)C3(C)C` [Taxotere, reference compound], the IC50 (L1210 leukemia) was 0.004 µg/mL (≈ 0.00495 µM).
